Where a SMILES comes first, the peptide text is derived from it. Bridges are numbered along the chain shown (N, C = ends). [ ]: non-standard residue; d: D form. The star is where a group is joined. hPhe(3-Cl-4-CF3) = N[C@@H](CCc1ccc(C(F)(F)F)c(Cl)c1)C(=O)O; NPrPhe(4-CF3) = CCCN[C@@H](Cc1ccc(C(F)(F)F)cc1)C(=O)O; NMeGly(cPent) = CN[C@H](C(=O)O)C1CCCC1; Pro(4,4-F2) = O=C(O)[C@@H]1CC(F)(F)CN1; NMeD = CN[C@@H](CC(=O)O)C(=O)O; NMeL = CN[C@@H](CC(C)C)C(=O)O; Pip = O=C(O)[C@@H]1CCCCN1; Morpholide = C1CN(*)CCO1; Ac5c = NC1(C(=O)O)CCCC1; Aze = O=C(O)[C@@H]1CCN1; NEtG = CCNCC(=O)O; Sar = CNCC(=O)O
Legend:
[1] = target: GDP-bound HRAS wild-type protein (Homo sapiens, UniProt P01112); experiment: Binding to HRAS by surface plasmon resonance (SPR), Single Cycle Kinetics
[2] = target: GDP-bound NRAS wild-type protein (Homo sapiens, UniProt P01111); experiment: Binding to NRAS by surface plasmon resonance (SPR), Single Cycle Kinetics
[3] = SPR, GDP-bound wild-type proteins

GDP-bound NRAS wild-type protein, sequence (P01111 whole entry): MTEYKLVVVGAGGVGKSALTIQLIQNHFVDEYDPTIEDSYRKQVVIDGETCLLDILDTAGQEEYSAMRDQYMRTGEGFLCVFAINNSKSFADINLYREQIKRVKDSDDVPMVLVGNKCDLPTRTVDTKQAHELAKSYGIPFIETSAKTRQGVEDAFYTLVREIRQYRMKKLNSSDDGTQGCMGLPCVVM
GDP-bound HRAS wild-type protein, sequence (P01112 whole entry): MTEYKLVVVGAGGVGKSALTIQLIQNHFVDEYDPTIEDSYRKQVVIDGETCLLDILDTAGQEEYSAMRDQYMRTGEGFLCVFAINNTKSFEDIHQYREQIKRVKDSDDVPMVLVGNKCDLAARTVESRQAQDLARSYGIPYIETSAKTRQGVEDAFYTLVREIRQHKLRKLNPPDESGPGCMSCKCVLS

With `CCC[C@H]1C(=O)N[C@@H]([C@@H](C)CC)C(=O)N(C)CC(=O)N(C)[C@H]2C/C=C\CCN(C2=O)[C@@H](Cc2ccc(C)cc2)C(=O)N(C)CC(=O)N[C@@H](CCc2cc(Cl)c3c(ccn3C)c2)C(=O)N2C[C@H](OCC)C[C@H]2C(=O)NC2(CC(C)(C)C2)C(=O)N(C)[C@@H](C(CC)CC)C(=O)N(C)[C@H](C(=O)N(C)C)CC(=O)N1C` [PP2898] the “HRAS/KRAS (ratio of KD value with respect to GDP-bound HRAS wild-type protein to KD value with respect to KRAS)” value ([1]; class symbols) was “A (a compound having 10 or more and less than 20 is denoted as A)” and the “NRAS/KRAS (ratio of KD value with respect to GDP-bound NRAS wild-type protein to KD value with respect to KRAS)” value ([2]; class symbols) was “A (a compound having 10 or more and less than 20 is denoted as A)”.
With `CCCN1C(=O)CN(C)C(=O)[C@@H]2CCN2C(=O)[C@H]([C@@H](C)CC)NC(=O)[C@H](CC(C)C)N(C)C(=O)C[C@@H](C(=O)N2CCOCC2)N(C)C(=O)[C@H](C2CCCC2)N(C)C(=O)C2(CCCC2)NC(=O)[C@@H]2CCCCN2C(=O)[C@H](CCc2ccc(C(F)(F)F)c(Cl)c2)NC(=O)CN(C)C(=O)[C@@H]1Cc1ccc(C(F)(F)F)cc1` [PP0311] ([NMeL]I[Aze][Sar][NPrPhe(4-CF3)][Sar][hPhe(3-Cl-4-CF3)][Pip][Ac5c][NMeGly(cPent)][NMeD]-Morpholide; lactam N-11) the “HRAS/KRAS (ratio of KD for GDP-bound HRAS wild-type to KD for KRAS)” value ([1]; SPR) was “B (a compound having 3 or more and less than 10 is denoted as B)” and the “NRAS/KRAS (ratio of KD for GDP-bound NRAS wild-type to KD for KRAS)” value ([2]; SPR) was “B (a compound having 3 or more and less than 10 is denoted as B)”.
`CCO[C@@H]1C[C@H]2C(=O)NC3(CC(C)(C)C3)C(=O)N(C)[C@@H](C3CCCC3)C(=O)N(C)[C@H](C(=O)N(C)CC)CC(=O)N(C)[C@H]3CC/C=C/c4ccc(cc4)C[C@@H](C(=O)N(C)CC(=O)N[C@@H](CCc4ccc(Cl)c(Cl)c4)C(=O)N2C1)N1CC/C=C\C[C@@H](C1=O)N(C)C(=O)CN(C1CC1)C(=O)[C@H]([C@@H](C)CC)NC3=O` [PP2598] was tested, and the “HRAS/KRAS (ratio of KD value with respect to GDP-bound HRAS wild-type protein to KD value with respect to KRAS)” value ([1]; class symbols) was “A (a compound having 10 or more and less than 20 is denoted as A)” and the “NRAS/KRAS (ratio of KD value with respect to GDP-bound NRAS wild-type protein to KD value with respect to KRAS)” value ([2]; class symbols) was “A (a compound having 10 or more and less than 20 is denoted as A)”.
With `CCO[C@@H]1C[C@H]2C(=O)NC3(CCC3)C(=O)N(C)[C@@H](C(CC)CC)C(=O)N(C)[C@H](C(=O)N3CCCC3)CC(=O)N(C)[C@H]3CCC/C=C/c4ccc(cc4)C[C@@H](C(=O)N(C)CC(=O)N[C@@H](CCc4ccc(Cl)c(Cl)c4)C(=O)N2C1)N1CC/C=C\C[C@@H](C1=O)N(C)C(=O)CN(C1CC1)C(=O)[C@H]([C@@H](C)CC)NC3=O` [PP3040] the “HRAS/KRAS (ratio of KD value with respect to GDP-bound HRAS wild-type protein to KD value with respect to KRAS)” value [1, 3] was “A (a compound having 10 or more and less than 20 is denoted as A)” and the “NRAS/KRAS (ratio of KD value with respect to GDP-bound NRAS wild-type protein to KD value with respect to KRAS)” value [2, 3] was “AA (a compound having 20 or more is denoted as AA)”.
In the case of `CCCN1C(=O)CN(C)C(=O)CN(C)C(=O)[C@H]([C@@H](C)CC)NC(=O)[C@H](CC(C)C)N(C)C(=O)C[C@@H](C(=O)N2CCOCC2)NC(=O)[C@H](C2CCCC2)N(C)C(=O)C2(CCCC2)NC(=O)[C@@H]2CC(F)(F)CN2C(=O)[C@H](CCc2ccc(C(F)(F)F)c(Cl)c2)NC(=O)CN(C)C(=O)[C@@H]1Cc1ccc(C(F)(F)F)cc1` [PP0321] ([NMeL]I[Sar][Sar][NPrPhe(4-CF3)][Sar][hPhe(3-Cl-4-CF3)][Pro(4,4-F2)][Ac5c][NMeGly(cPent)]D-Morpholide; lactam N-11), the “HRAS/KRAS (ratio of KD for GDP-bound HRAS wild-type to KD for KRAS)” value ([1]; SPR) is reported as “B (a compound having 3 or more and less than 10 is denoted as B)” and the “NRAS/KRAS (ratio of KD for GDP-bound NRAS wild-type to KD for KRAS)” value ([2]; SPR) is reported as “B (a compound having 3 or more and less than 10 is denoted as B)”.
With `CCCOC[C@H]1C(=O)N[C@@H]([C@@H](C)CC)C(=O)N(C)CC(=O)N(C)[C@H]2C/C=C\CCN(C2=O)[C@@H](Cc2ccc(C(F)(F)F)cc2)C(=O)N(C)CC(=O)N[C@@H](CCc2cc(F)c(C(F)(F)F)c(F)c2)C(=O)N2C[C@H](F)C[C@H]2C(=O)NC2(CC(C)(C)C2)C(=O)N(C)[C@@H](C2CCCC2)C(=O)N(C)[C@H](C(=O)N(C)CC)CC(=O)N1C` [PP1697] the “HRAS/KRAS (ratio of KD value for HRAS to KD value for KRAS)” value ([1]; KD ratio, GDP-bound HRAS wild-type vs GDP-bound KRAS wild-type, SPR) was “A (a compound having 10 or more and less than 20 is denoted as A)” and the “NRAS/KRAS (ratio of KD value for NRAS to KD value for KRAS)” value ([2]; KD ratio, GDP-bound NRAS wild-type vs GDP-bound KRAS wild-type, SPR) was “A (a compound having 10 or more and less than 20 is denoted as A)”.
`CCCN1C(=O)CN(C)C(=O)CN(CC)C(=O)[C@H]([C@@H](C)CC)NC(=O)[C@H](CC(C)C)N(C)C(=O)C[C@@H](C(=O)N2CCOCC2)N(C)C(=O)[C@H](C2CCCC2)N(C)C(=O)C2(CCCC2)NC(=O)[C@@H]2CCCCN2C(=O)[C@H](CCc2ccc(C(F)(F)F)c(Cl)c2)NC(=O)CN(C)C(=O)[C@@H]1Cc1ccc(C(F)(F)F)cc1` [PP0297] ([NMeL]I[NEtG][Sar][NPrPhe(4-CF3)][Sar][hPhe(3-Cl-4-CF3)][Pip][Ac5c][NMeGly(cPent)][NMeD]-Morpholide; lactam N-11) was tested, and the “HRAS/KRAS (ratio of KD for GDP-bound HRAS wild-type to KD for KRAS)” value ([1]; SPR) was “C (A compound having a KD ratio of 0.1 or more and less than 3 is denoted as C)” and the “NRAS/KRAS (ratio of KD for GDP-bound NRAS wild-type to KD for KRAS)” value ([2]; SPR) was “B (a compound having 3 or more and less than 10 is denoted as B)”.
